Molecules are shown by their SMILES. “Also recorded” adds a separate entry of the source. Some results are limits rather than exact numbers.

Data on 27 compounds can be found in patent US6291442A, “Pharmacological modulators of voltage-gated potassium ion channels” (The General Hospital Corporation, priority 1999, dated 2001).

In one series the test system is Shaker class voltage-gated potassium ion channels.
Experiment: not given
Particulars: tetraethylammonium 5 mM alone; depolarizing pulse +60 mV. The method, then: At a depolarizing pulse of +60 mV, the steady state blockade of current caused by channel-blockers was measured as the current in the presence of the channel-blocker divided by the current in the absence of the channel-blocker.
For `CC[N+](CC)(CC)CC` [tetraethylammonium], the “steady state blockade of current” value amounted to 15%.

Staying with this series, now noted: tetraethylammonium 5 mM in the presence of 10 mM 2-benzoylbenzoic acid; +60 mV.
As for `CC[N+](CC)(CC)CC` [tetraethylammonium], the “steady state blockade of current” value came out at 16%.

Another series deals with Drosophila Shaker H4 potassium ion channels. As to the kind of experiment: Patch voltage clamp recording, time course of channel closure (deactivation). The settings on record: inside-out excised patch voltage clamp, FIG. 3. An excerpt:
Standard patch recording methods were used to record potassium channel currents from the transfected cells (Hamill, O. P., Marty, A., Neher, E., Sakmann, B., and Sigworth, F. J., Pfluegers Arch(1981), 391:85, the entire teachings of which are incorporated herein by reference). If expression was sufficiently high, the excised inside-out or excised outside-out recording configurations was used; otherwise the whole cell recording configuration was used. […] Standard extracellular saline was used in the recording pipette, and standard intracellular saline was perfused on the exposed side, or bath side, of the membrane. Test compounds were added to the intracellular saline at the concentration specified.
For recording the time course of channel activation and deactivation, voltage clamp steps were applied from a resting potential of -80 to -100 mV to an activation potential of between -60 and +60 mV; after these activating steps (lasting 5-100 ms in duration), the voltage was returned to a potential of between -120 and -60 mV to monitor the time course of closure, or de-activation, of the channels. Standard experimental solutions contained, in mM: 150 NaCl, 10 KCl, 3 CaCl2, 1 MgCl2, and 10 HEPES, at pH 7.4 in the pipette solution; and 160 KCl, 0.5 MgCl2, 1 EGTA, and 10 HEPES, at pH 7.4 in the bath solution. Solutions with Cd^2+ contained no EGTA.
In Table I, II and III, the time course of closure of Drosophila Shaker H4 potassium ion channels was measured in the presence of a test compound and compared to the time course of closure in the absence of a test compound.
For the compound `O=C(O)c1ccc([N+](=O)[O-])cc1Oc1cccc([N+](=O)[O-])c1`, the “effect on the maximal level of outward or inward current” value is “little or no effect”.

The same series, now with this note: inside-out excised patch voltage clamp, FIG. 3 and 4.
`O=C(O)c1ccc([N+](=O)[O-])cc1Oc1cccc([N+](=O)[O-])c1`: the “effect on the closing of the ion channel” value was “slows the closing of the ion channel”.

Regarding `CCOc1ccc(Nc2cc([N+](=O)[O-])ccc2C(=O)O)cc1` [N-(4-ethoxyphenyl)-4-nitro anthranilic acid], the “effect on the closing of the ion channel” value was “speeds the closing of the ion channel”.

The same series, now with this note: inside-out excised patch voltage clamp, FIG. 4.
On to `CCOc1ccc(Nc2cc([N+](=O)[O-])ccc2C(=O)O)cc1` [N-(4-ethoxyphenyl)-4-nitro anthranilic acid], for which the “reduction in the maximal level of outward or inward current” value is on record as below 20%.

Staying with this series, now noted: shaker h4 channel patch, 500 µM.
As for `O=C(O)c1ccccc1[S+]([O-])c1ccccc1` (centres unmarked) [1-carboxydiphenyl sulfoxide], the “Approximate Increase in Time Course of Closure” value (shortened to “Approximate Increase”) is listed as 2.2 X. On to `Nc1cc(C(=O)c2ccccc2C(=O)O)ccc1Cl` [2-(3-amino-4-chlorobenzoyl)benzoic acid], for which the “Approximate Increase” value was determined as 2 X.

In the case of `COc1cccc(Oc2c(OC)cccc2C(=O)O)c1` [2-(3-methoxyphenoxy)-3-methoxybenzoic acid], the “Approximate Increase” value was below 2 X. Regarding `O=C(O)c1ccccc1Oc1cccc([N+](=O)[O-])c1` [2-(3-nitrophenoxy)benzoic acid], the “Approximate Increase” value is reported as 3-4 X.

As for `Nc1ccc(C(=O)c2ccccc2C(=O)O)cc1[N+](=O)[O-]` [2-(4-amino-3-nitro-benzoyl)benzoic acid], the “Approximate Increase” value was at least 2 X. `O=C(O)c1ccccc1C(=O)c1ccc(Cl)c([N+](=O)[O-])c1` [2-(4-chloro-3-nitrobenzoyl)benzoic acid]: the “Approximate Increase” value is recorded as 2 X. As for `O=C(O)c1ccccc1C(=O)c1ccc(Cl)cc1` [2-(4-chlorobenzoyl)benzoic acid], the “Approximate Increase” value came to 2 X.

As to `Nc1cccc(C(=O)O)c1Oc1ccc(Cl)cc1` [2-(4-chlorophenoxy)-3-aminobenzoic acid], the “Approximate Increase” value was found to be 9 X. Regarding `COc1ccc(Oc2c(C(=O)O)cccc2[N+](=O)[O-])cc1` [2-(4-methoxyphenoxy)-3-nitrobenzoic acid], the “Approximate Increase” value turned out to be 1.5 X. The same measure, in the same setting: in the case of `Cc1ccc(C(=O)c2ccccc2C(=O)O)cc1` [2-(p-toluoyl)benzoic] it was 2 X. Still for that read-out and setting: for `Nc1ccccc1C(=O)c1ccccc1C(=O)O` [2-aminobenzophenone-2-carboxylic] the value was 2 X; for `O=C(O)c1ccccc1C(=O)c1ccccc1` [2-benzoylbenzoic acid], 2.5 X; for `Cc1ccc(Sc2ccccc2C(=O)O)c(S(N)(=O)=O)c1` [2-sulfamide-4-methyl-2'-carboxydiphenyl sulfide], below 2 X. With `CC(=O)Nc1ccc(C=Cc2ccc([N+](=O)[O-])cc2S(=O)(=O)O)c(S(=O)(=O)O)c1` [4-nitro-4'-acetamide-2,2'-disulfonate stilbene], the “Approximate Increase” value was found to be 2 X. Same read-out and setting: for `CC(C(=O)O)c1cccc(Oc2ccccc2)c1` (centres unmarked) [fenoprofen, reference compound] the value was 2.2 X; for `O=C(O)c1cccnc1Nc1cccc(C(F)(F)F)c1` [niflumic acid, reference compound], 2.4 X.

The series is the same for the next values; noted with them: test compound 0.5 mM; compared to closure in the absence of test compound.
For the compound `Cc1c(C)c(C)c(C(=O)c2ccccc2C(=O)O)c(C)c1C` [2-(2,3,4,5,6-pentamethylbenzoyl) benzoic acid], the “Approximate Decrease in Time Course of Closure” value (“Approximate Decrease” for short) is 2 X. On the same count and under the same terms, in the case of `CCCCN(CCCC)c1ccc(C(=O)c2ccccc2C(=O)O)c(O)c1` [2-(4-dibutylamino-2-hydroxybenzoyl) benzoic acid] it was 6.4 X.

With `O=C(O)c1c(Cl)c(Cl)c(Cl)c(Cl)c1C(=O)c1ccccc1` [2-benzoyl-3,4,5,6-tetrachloro-benzoic], the “Approximate Decrease” value is given as at least 2 X.

As to `O=C(O)c1ccc(Br)cc1Oc1ccccc1` [4-bromo-2-(phenoxy) benzoic acid], the “Approximate Decrease” value is recorded as at least 2 X. Same read-out and setting: for `COc1cccc(C(=O)c2cc(OC)ccc2C(=O)O)c1` [4-methoxy-2-(3-methoxy-benzoyl)-benzoic acid] the value was at most 2 X; for `CC(C(=O)O)c1ccc2c(c1)[nH]c1ccc(Cl)cc12` (centres unmarked) [Carprofen, reference compound], 3.2 X; for `Cc1ccc(Cl)c(Nc2ccccc2C(=O)O)c1Cl` [Meclofenamic acid, reference compound], 2.5 X. The same measure, in the same setting: for `Nc1cc(Cl)ccc1Nc1ccccc1C(=O)O` [N-(2-amino-4-chlorophenyl) anthranilic acid] the value was 2.4 X; for `CCOc1ccc(Nc2cc([N+](=O)[O-])ccc2C(=O)O)cc1` [N-(4-ethoxyphenyl)-4-nitro anthranilic acid], 5-10 X.

Another series shares this test system. As to the kind of experiment: Application to intracellular (inside-out patch) versus extracellular (outside-out patch) side of the membrane. Format: cell-based. The settings on record: inside-out versus outside-out excised patch. The method, then:
Compounds were applied to the intracellular side of the cell membrane by adding the compound to the solution bathing the exposed face of an excised inside-out patch containing Drosophila Shaker H4 potassium ion channels. Application to the extracellular side of the membrane was performed by adding the compound to the solution bathing the exposed face of an excised outside-out patch containing Drosophila Shaker H4 potassium ion channels.
For `O=C(O)c1ccccc1C(=O)c1ccccc1` [2-benzoylbenzoic acid], the “side of the cell membrane from which the compound is effective” value was “effective from only one side of the membrane; also recorded: effective only from the intracellular side of the cell membrane”.
